The nature of the series: Storage stability at room temperature and 100% relative humidity. Type of series: physicochemical. To be noted: 200 mg stored for a month at room temperature and 100% relative humidity. How it is done:
For the assessment of stability, 200 mg of the Example A6 product (60% w/w QS in EC) was stored for a month at room temperature and 100% relative humidity, alongside a sample of the as-received pure QS.

The structures appear in SMILES notation.

As for `C=C[C@H]1C[N@@]2CC[C@H]1C[C@H]2[C@H](O)c1ccnc2ccc(OC)cc12` [quinine sulphate], the “powder physical appearance and flow properties after storage” value was “signs of partial caking and a lower degree of powder flowability”.
